Experimental data taken from US9364479B2, “Use of a receptor-type kinase modulator for treating polycystic kidney disease” (SYMPHONY EVOLUTION, INC., priority 2010, dated 2016).
Marks after values point to notes of the source that are not given here.

How the values were obtained:
Phospho-EGFR Tyr1068 = target: T1, Phospho-EGFR Tyr1068 (Homo sapiens, UniProt P00533, L858R/T790M); test: Immunohistochemical analysis of phosphorylation in H1975 xenografts; type: in vivo, mouse; settings: 14-day dosing
T1 construct: host or cells: H1975 (cultured cells; s.c. xenografts in mice)
Protocol: For immunohistochemical analysis of H1975, MDA-MB-231 and other xenografts, tumors were excised after euthanasia and fixed in zinc fixative (BD Biosciences) for 48 h before being processed into paraffin blocks. Serial sections at 5 μm were obtained from the area of largest possible surface for each tumor and stained using standard methods. The following antibodies were used: Ki67 (SP6; Labvision), CD31 (MECA.32; BD Biosciences), pERK^Thr202/Tyr204 (phospho-p44/42 mitogen-activated protein kinase; Cell Signaling Technology), pAKT^Ser473 (Cell Signaling Technology), and pEGFR^Tyr1068 (Cell Signaling Technology). For immunofluorescent staining, sections were then incubated with Alexa 594-conjugated goat anti-rabbit secondary antibody (Invitrogen) and mounted in Fluorescent Mounting Medium (DAKO) containing 4′,6-diamidino-2-phenylindole (Molecular Probes) as a nuclear counterstain. Fluorescent staining was visualized using a Zeiss Axiolmager and digitally captured using a Zeiss high-resolution camera coupled to AxioVision image analysis software. Two to three nonoverlapping representative fields were captured at ×200 or ×400 magnification depending on histologic readout and quantified using the integrated morphometric analysis functions in Metamorph software (Universal Imaging Corp.). Apoptotic cells were detected using terminal deoxynucleotidyl transferase-mediated dUTP nick end labeling in situ cell death detection kit according to the manufacturer's instructions (Roche Diagnostics GmbH).
Results are presented as mean±SD or SE as indicated for each graph or table. For IC50 comparison in the A431 cell viability experiment, two sample Student's t tests were applied to determine P values for each IC50 pair assuming that the random fluctuations of replicates around the dose-response curve are distributed [log]normally with the individual replicates used as the ‘sample size’ for the t test (nine point dose response done in triplicate).

GABA-B = target: T2, GABA-B (Homo sapiens, UniProt Q9UBS5); test: NovaScreen assay; type: binding; settings: read-out: Inhibition, 10 μM XL-647
T2 construct: NovaScreen
T2 sequence (Q9UBS5 15-961 limits assumed): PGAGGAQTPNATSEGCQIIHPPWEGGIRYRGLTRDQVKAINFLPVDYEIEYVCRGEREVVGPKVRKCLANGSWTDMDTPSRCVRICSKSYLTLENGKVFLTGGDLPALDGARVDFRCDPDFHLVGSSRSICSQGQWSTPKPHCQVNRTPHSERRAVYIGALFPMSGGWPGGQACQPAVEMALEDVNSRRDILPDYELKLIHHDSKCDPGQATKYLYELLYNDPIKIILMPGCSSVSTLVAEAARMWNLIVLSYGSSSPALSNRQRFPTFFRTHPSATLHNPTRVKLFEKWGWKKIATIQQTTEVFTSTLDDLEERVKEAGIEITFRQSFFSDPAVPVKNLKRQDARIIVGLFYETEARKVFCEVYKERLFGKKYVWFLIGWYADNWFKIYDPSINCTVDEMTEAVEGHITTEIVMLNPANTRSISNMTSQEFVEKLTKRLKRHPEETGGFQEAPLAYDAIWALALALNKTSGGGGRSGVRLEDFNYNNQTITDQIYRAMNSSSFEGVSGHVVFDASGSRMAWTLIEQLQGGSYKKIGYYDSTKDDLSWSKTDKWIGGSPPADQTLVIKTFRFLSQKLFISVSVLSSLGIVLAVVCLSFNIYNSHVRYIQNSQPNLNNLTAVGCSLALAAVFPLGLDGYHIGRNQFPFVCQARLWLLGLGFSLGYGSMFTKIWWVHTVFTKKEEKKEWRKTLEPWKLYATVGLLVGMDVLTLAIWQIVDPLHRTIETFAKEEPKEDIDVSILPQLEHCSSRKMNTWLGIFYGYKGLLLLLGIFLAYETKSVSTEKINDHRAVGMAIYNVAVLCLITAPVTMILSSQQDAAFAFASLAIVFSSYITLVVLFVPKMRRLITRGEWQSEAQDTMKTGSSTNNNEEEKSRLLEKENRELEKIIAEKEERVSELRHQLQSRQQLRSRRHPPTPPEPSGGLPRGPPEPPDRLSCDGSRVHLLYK
T2 sequence (O75899 42-941 partner): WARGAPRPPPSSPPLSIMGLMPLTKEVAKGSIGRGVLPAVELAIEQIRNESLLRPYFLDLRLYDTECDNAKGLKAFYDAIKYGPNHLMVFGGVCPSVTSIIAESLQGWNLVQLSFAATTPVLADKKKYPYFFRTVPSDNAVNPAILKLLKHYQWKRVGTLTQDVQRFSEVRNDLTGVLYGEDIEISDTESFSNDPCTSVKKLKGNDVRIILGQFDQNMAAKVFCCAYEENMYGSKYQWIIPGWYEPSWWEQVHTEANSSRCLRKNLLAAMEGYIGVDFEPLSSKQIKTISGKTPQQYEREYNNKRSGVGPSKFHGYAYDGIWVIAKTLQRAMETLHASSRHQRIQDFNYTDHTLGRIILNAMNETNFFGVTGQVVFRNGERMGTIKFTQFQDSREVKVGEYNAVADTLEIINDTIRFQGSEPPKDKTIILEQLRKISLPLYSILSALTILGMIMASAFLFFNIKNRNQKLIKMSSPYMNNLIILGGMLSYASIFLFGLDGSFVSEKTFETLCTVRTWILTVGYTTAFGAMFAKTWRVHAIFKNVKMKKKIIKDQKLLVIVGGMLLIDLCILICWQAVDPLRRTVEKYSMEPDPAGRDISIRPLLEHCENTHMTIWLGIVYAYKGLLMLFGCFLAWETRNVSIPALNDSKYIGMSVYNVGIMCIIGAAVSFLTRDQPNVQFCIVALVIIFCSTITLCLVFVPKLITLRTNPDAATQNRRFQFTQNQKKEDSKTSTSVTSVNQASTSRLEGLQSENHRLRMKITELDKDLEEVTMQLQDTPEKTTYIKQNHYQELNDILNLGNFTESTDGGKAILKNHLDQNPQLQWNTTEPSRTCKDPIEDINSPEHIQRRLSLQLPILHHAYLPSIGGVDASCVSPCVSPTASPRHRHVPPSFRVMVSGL

[1] = system: MDA-MB-231 human tumor xenograft; test: MDA-MB-231 xenograft, tumor growth; type: in vivo; settings: Mus musculus
Protocol: Before treatment, H1975, A431, or MDA-MB-231 cells were harvested from exponentially growing cultures, detached by brief trypsinization, washed twice in cold HBSS, resuspended in ice-cold HBSS, and implanted either s.c. (H1975, 3×10^6 cells per mouse) or i.d. (A431, 1×10^6 cells per mouse) into the dorsal hind flank or s.c. into the mammary fat pad (MDA-MB-231, 1×10^6 cells per mouse). Palpable tumors were measured by caliper twice weekly until the mean tumor weight was in the range of ˜80 to 120 mg. Tumor weight was determined by measuring perpendicular diameters with a caliper and multiplying the measurements of diameters in two dimensions: tumor volume (mm^3)/2=length (mm)×width (mm^2)/2. […] The mean tumor weight of each animal in the respective control and treatment groups was determined twice weekly during the dosing periods. […]
The response of tumors to treatment was determined by comparing the mean tumor weight of the treatment group with the appropriate control group. Percentage inhibition of tumor growth was determined with the following formula: Percentage inhibition=100×[1−(Xf−Xo)/(Yf−Yo)], where Xf and Yf are the mean tumor weights of the treatment and control groups, respectively, on day f, and Xo and Yo are the mean tumor weights of treatment and control groups respectively, on day zero (staged tumor weights after grouping)

wt EGFR (A431) = wt EGFR (A431) (Homo sapiens, UniProt P00533); test: Cell-based EGFR autophosphorylation assay in A431 cells; settings: read-out: IC50, EGFR phosphorylation
Protocol: A431 contains overexpressed wt human EGFR.
A431 and MDA-MB-231 cell lines were maintained and propagated as monolayer cultures in DMEM (Mediatech) containing L-glutamine supplemented with 10% heat-inactivated fetal bovine serum (Hyclone), 100 units/mL penicillin G, 100 μg/mL streptomycin (1% penicillin/streptomycin, Mediatech), and 1% nonessential amino acids (Mediatech) at 37° C. in a humidified 5% CO2 incubator.
A431 cells were seeded at 5×10^4 per well in 96-well microtiter plates (3904 Costar, VWR) and incubated in fully supplemented DMEM for 16 h after which growth medium was replaced with serum-free DMEM and the cells were incubated for an additional 24 h. […] After treatment, cell monolayers were washed with cold PBS and immediately lysed with cold lysis buffer (50 mmol/L Tris-HCl (pH 8.0), 150 mmol/L NaCl, 10% glycerol, 1% NP40, 0.1% SDS, 0.5% sodium deoxycholate, 1 mmol/L EDTA, 50 mmol/L NaF, 1 mmol/L sodium pyrophosphate, 1 mmol/L sodium orthovanadate, 2 mmol/L phenylmethylsulfonyl fluoride, 10 μg/mL aprotinin, 5 μg/mL leupeptin, 5 μg/mL pepstatin). […] Horseradish peroxidase activity was determined by reading the plates in a Victor2 plate reader following addition of the ELISA Femto substrate (Pierce).

Histamine, H2 = target: T3, Histamine, H2 (Homo sapiens, UniProt P25021); test: NovaScreen assay; type: binding; settings: read-out: Inhibition, 10 μM XL-647
T3 construct: NovaScreen
T3 sequence (P25021 whole entry): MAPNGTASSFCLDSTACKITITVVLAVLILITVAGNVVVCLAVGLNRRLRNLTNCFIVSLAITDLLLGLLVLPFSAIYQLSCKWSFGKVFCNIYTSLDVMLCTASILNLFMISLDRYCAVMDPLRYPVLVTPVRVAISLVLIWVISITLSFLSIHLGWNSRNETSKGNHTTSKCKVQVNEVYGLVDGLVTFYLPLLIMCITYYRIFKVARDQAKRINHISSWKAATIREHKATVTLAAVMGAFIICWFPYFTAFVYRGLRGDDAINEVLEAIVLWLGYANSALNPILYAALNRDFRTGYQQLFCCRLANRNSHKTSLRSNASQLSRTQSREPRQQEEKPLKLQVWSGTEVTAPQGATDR

CYP2D6 = CYP2D6 (Homo sapiens, UniProt P10635)
CYP2D6, sequence (P10635 whole entry): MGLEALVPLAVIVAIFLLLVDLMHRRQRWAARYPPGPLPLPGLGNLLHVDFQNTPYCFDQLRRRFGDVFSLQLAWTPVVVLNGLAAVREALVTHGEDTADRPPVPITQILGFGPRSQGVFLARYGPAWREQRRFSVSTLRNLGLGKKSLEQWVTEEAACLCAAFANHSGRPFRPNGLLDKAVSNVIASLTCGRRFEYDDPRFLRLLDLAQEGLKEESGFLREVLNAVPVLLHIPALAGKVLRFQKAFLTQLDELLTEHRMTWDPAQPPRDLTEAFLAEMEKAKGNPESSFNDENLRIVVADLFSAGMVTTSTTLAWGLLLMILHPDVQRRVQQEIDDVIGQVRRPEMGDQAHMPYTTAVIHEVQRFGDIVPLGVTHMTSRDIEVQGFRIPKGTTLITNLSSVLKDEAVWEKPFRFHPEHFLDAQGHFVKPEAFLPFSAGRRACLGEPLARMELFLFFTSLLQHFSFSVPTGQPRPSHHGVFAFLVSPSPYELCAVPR

c-Kit = c-Kit (Homo sapiens, UniProt P10721); test: c-Kit autophosphorylation ELISA, transfected HeLa cells; type: cell-based; design: expressed in transfected cells; host or cells: HeLa; settings: read-out: Cellular IC50, autophosphorylation
c-Kit, sequence (P10721 26-976): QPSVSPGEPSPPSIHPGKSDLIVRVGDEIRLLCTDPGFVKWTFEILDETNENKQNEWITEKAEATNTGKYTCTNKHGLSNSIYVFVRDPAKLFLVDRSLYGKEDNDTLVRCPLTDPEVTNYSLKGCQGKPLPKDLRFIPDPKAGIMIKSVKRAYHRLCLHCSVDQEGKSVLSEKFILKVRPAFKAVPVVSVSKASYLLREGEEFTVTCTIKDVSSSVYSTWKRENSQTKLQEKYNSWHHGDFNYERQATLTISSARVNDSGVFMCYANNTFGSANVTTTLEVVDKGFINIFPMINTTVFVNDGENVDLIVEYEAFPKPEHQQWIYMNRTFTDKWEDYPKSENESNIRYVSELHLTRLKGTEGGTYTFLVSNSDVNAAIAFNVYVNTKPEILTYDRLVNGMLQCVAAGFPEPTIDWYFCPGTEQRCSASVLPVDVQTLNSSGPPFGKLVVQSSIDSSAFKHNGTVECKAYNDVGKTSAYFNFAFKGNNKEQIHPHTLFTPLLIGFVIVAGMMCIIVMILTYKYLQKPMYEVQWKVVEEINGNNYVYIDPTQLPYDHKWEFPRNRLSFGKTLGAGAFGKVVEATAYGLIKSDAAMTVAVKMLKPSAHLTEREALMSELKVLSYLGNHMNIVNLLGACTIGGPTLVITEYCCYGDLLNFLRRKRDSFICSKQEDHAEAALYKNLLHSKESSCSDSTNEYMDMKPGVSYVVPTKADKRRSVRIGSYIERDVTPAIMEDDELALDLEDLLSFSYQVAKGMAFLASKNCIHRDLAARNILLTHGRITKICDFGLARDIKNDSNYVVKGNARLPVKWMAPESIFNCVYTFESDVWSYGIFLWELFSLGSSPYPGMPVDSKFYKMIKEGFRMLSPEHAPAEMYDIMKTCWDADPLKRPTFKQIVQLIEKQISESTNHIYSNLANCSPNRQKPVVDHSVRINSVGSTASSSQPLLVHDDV
Protocol: The c-Kit autophosphorylation ELISA utilized HeLa (ATCC) cells. Cells were seeded at 6×10^5 cells/well onto 100 mm dish. 24 hours later, HeLa cells were transfected with a mammalian expression plasmid containing a CMV promoter operably linked to the open reading frame of human c-kit with a Flag epitope tag on the C-terminus 24 hours later, c-Kit transfected HeLa cells were trypsinized and re-seeded at 6×10^3 cells/well into 96-well microtiter plates (Costar 3904), in DMEM (Cellgro) containing 10% FBS (Heat-Inactivated, Hyclone), 1% penicillin-streptomycin (Cellgro), and 1% NEAA solution (Cellgro). The cells were then incubated at 37° C., 5% CO2 for 24 hr. […] Negative control wells were left unstimulated. Following stimulation, media was removed, the cell monolayer washed with cold PBS and immediately lysed with cold lysis buffer. Lysates were incubated in 96-well streptavidin-coated plates (Pierce) coated with biotin-conjugated, goat anti-human c-Kit (1 μg/ml, R&D Systems). Plates were washed 3× with TBST and incubated either with HRP-conjugated anti-phosphotyrosine (1:10,000, Zymed Laboratories, Inc) or HRP-conjugated anti-Flag(M2) (1:2,000, Sigma). Plates were washed again as described above followed by the addition of a luminol-based substrate solution and read with a Victor spectrophotometer (Wallac).

COc1cc2c(Nc3ccc(Cl)c(Cl)c3F)ncnc2cc1OC[C@@H]1C[C@@H]2CN(C)C[C@@H]2C1 [XL-647, N-(3,4-dichloro-2-fluorophenyl)-7-({[(3aR,5r,6aS)-2-methyloctahydrocyclopenta[c]pyrrol-5-yl]methyl}oxy)-6-(methyloxy)quinazolin-4-amine] was tested, and the “Phospho-EGFR Tyr1068 % Cells” value (Phospho-EGFR Tyr1068; 10 mg/kg) was 14 ± 1.9%, the “Phospho-EGFR Tyr1068 % Reduction” value (Phospho-EGFR Tyr1068; 10 mg/kg) was 49.0^a % and the “Phospho-EGFR Tyr1068 % Cells” value (Phospho-EGFR Tyr1068; 30 mg/kg) was 12 ± 1.3%. The “Phospho-EGFR Tyr1068 % Reduction” value (Phospho-EGFR Tyr1068; 30 mg/kg) was 56.1^a %, the “Phospho-EGFR Tyr1068 % Cells” value (Phospho-EGFR Tyr1068; 100 mg/kg) was 10 ± 1.8% and the “Phospho-EGFR Tyr1068 % Reduction” value (Phospho-EGFR Tyr1068; 100 mg/kg) was 63.7^a %. For the same compound, the inhibition at 10 µM (GABA-B) was -1.19%, the ED50 ([1]; MDA-MB-231, qd × 14) was 21.9 mg/kg and the ED50 ([1]; MDA-MB-231, qd × 28) was 22.9 mg/kg. The IC50 (wt EGFR (A431)) was 1 nM, the inhibition at 10 µM (Histamine, H2) was 45.7% and the “CYP2D6 inhibition, in words” value (CYP2D6) was “inhibitor”. The IC50 (c-Kit) was 90 nM.
